According to ChEMBL document CHEMBL5728053, “Dihydropyrrolopyridine inhibitors of ROR-gamma” (2020):

Biological target: T1, Nuclear receptor ROR-gamma (Homo sapiens, UniProt P51449)
T1 sequence (P51449 whole entry): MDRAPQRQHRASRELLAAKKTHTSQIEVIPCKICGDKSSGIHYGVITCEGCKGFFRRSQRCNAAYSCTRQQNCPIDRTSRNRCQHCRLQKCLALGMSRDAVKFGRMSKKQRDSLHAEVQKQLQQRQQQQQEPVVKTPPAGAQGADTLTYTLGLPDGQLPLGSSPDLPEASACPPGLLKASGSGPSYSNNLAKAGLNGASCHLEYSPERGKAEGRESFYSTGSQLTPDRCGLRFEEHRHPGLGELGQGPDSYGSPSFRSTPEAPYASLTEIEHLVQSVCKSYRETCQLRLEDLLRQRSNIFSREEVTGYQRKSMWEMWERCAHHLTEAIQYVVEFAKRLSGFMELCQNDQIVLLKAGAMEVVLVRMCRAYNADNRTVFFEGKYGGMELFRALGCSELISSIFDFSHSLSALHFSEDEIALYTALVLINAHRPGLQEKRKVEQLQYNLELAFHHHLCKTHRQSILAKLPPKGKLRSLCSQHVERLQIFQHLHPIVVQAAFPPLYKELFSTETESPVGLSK
Assay: RORgammat 5xRORE Assay in Jurkat Cells (Assay 2) : Compounds of the present invention were tested for RORγ inverse agonist activity in a cell-based, transcriptional activity assay. […] (Promega, Cat. # N1021) using KpnI and HindIII restriction sites. […] Luciferase activity in the conditioned supernatants was determined with NanoGlo® assay reagents (Promega, Cat. # N1130).

CCS(=O)(=O)c1ccc(CNC(=O)c2cnc3c(c2)C(=O)N(Cc2ccc(Cl)cc2)[C@H]3C(C)C)cc1
IC50: 100 to 1000 nM
